According to patent US20060130266A1, “Dermal drug delivery system” (priority 2004, published 2006):
Marks after values point to notes of the source that are not given here.

Tests used:
[1] = octanol/water; cited from earlier work
[2] = In vitro skin permeation, Franz cell infinite dose study (optimisation studies with MP, BP, CF); conditions: BP; for EF enhancement factor: flux vs untreated skin
[3] = Table 4b, brush A 450 Nm^−2, 20 s, 80 rpm
[4] = Table 4b, brush A 450 Nm^−2, 45 s, 80 rpm
[5] = Table 4b, brush A 750 Nm^−2, 45 s, 80 rpm
[6] = Table 4b, brush A 1200 Nm^−2, 45 s, 80 rpm
[7] = Table 5c, EtoH/PBS (50% ethanol donor solution)
[8] = Table 5c, brush A 450 Nm^−2, 45 s
[9] = Table 5c, brush B 300 Nm^−2, 15 s
[10] = Table 5c, brush B 300 Nm^−2, 25 s
[11] = Table 5c, brush B 450 Nm^−2, 15 s

CCCCOC(=O)c1ccc(O)cc1 [BP, Butyl paraben]
Log P (o/w) [1]: 3.57 | JS flux [2, 3]: 6.60 ± 0.49* 10^−3 μg/cm/s | KP permeability coefficient [2, 3]: 3.30 ± 0.25 10^−5 cm/s | TL lag time [2, 3]: 37.10 ± 2.26 min | EF enhancement factor [2, 3]: 1.74 | JS flux [2, 4]: 7.50 ± 0.75* 10^−3 μg/cm/s | KP permeability coefficient [2, 4]: 3.75 ± 0.37 10^−5 cm/s | TL lag time [2, 4]: 25.22 ± 2.17 min | EF enhancement factor [2, 4]: 1.97 | JS flux [2, 5]: 8.26 ± 0.89* 10^−3 μg/cm/s | KP permeability coefficient [2, 5]: 4.13 ± 0.45 10^−5 cm/s | TL lag time [2, 5]: 26.34 ± 1.48 min | EF enhancement factor [2, 5]: 2.17 | JS flux [2, 6]: 8.62 ± 1.05* 10^−3 μg/cm/s | KP permeability coefficient [2, 6]: 4.31 ± 0.52 10^−5 cm/s | TL lag time [2, 6]: 26.39 ± 1.30 min | EF enhancement factor [2, 6]: 2.26 | JS flux ([2]; Table 4b, delipidised skin): 15.95 ± 1.55* 10^−3 μg/cm/s | KP permeability coefficient ([2]; Table 4b, delipidised skin): 7.98 ± 0.78 10^−5 cm/s | TL lag time ([2]; Table 4b, delipidised skin): 18.58 ± 3 min | EF enhancement factor ([2]; Table 4b, delipidised skin): 4.20 | KP permeability coefficient ([2]; Table 4b, untreated skin): 1.90 ± 0.23 10^−5 cm/s | TL lag time ([2]; Table 4b, untreated skin): 33.47 ± 8.79 min | KP permeability coefficient [2, 7]: 9.24 ± 0.80 10^−5 cm/s | TL lag time [2, 7]: 26.43 ± 5.05 min | EF enhancement factor ([2]; Table 5c, EtoH/PBS): 3.75 | JS flux [2, 8]: 8.38 ± 1.09* 10^−4 μg/cm/s | KP permeability coefficient [2, 8]: 4.19 ± 0.54 10^−5 cm/s | TL lag time [2, 8]: 24.51 ± 5.50 min | EF enhancement factor [2, 8]: 1.69 | JS flux [2, 9]: 6.16 ± 0.89* 10^−4 μg/cm/s | KP permeability coefficient [2, 9]: 3.08 ± 0.44 10^−5 cm/s | TL lag time [2, 9]: 22.65 ± 3.22 min | EF enhancement factor [2, 9]: 1.25 | JS flux [2, 10]: 10.47 ± 0.96* 10^−4 μg/cm/s | KP permeability coefficient [2, 10]: 5.23 ± 0.48 10^−5 cm/s | TL lag time [2, 10]: 23.06 ± 2.19 min | EF enhancement factor [2, 10]: 2.12 | KP permeability coefficient [2, 11]: 6.34 ± 1.03 10^−5 cm/s | TL lag time [2, 11]: 14.55 ± 5.18 min | EF enhancement factor [2, 11]: 2.57 | KP permeability coefficient ([2]; Table 5c, delipidised skin): 10.27 ± 1.43 10^−5 cm/s | TL lag time ([2]; Table 5c, delipidised skin): 8.17 ± 5.41 min | EF enhancement factor ([2]; Table 5c, delipidised skin): 4.16 | KP permeability coefficient ([2]; Table 5c, tapestripped skin): 7.80 ± 1.84 10^−5 cm/s | TL lag time ([2]; Table 5c, tapestripped skin): 34.78 ± 4.44 min | EF enhancement factor ([2]; Table 5c, tapestripped skin): 3.16 | KP permeability coefficient ([2]; Table 5c, untreated skin): 2.47 ± 0.11 10^−5 cm/s | TL lag time ([2]; Table 5c, untreated skin): 35.84 ± 1.98 min
